Reference: PMC11823594, “Durlobactam in combination with β-lactams to combat Mycobacterium abscessus” (Antimicrobial Agents and Chemotherapy, 2024)
Entries after “also recorded” stand apart in the source; their conditions may differ.

Experiments:
Mab ATCC 19977 = test: Static drug-concentration time-kill (SCTK) assay with CART analysis; assay type: cell-based, Mycobacterium abscessus; details: clinically achievable concentrations, over 10 days; AVI 4 mg/L; DUR 12 mg/L + SUL 7 mg/L
DDC = DDC (Mycobacteroides abscessus, UniProt B1MDJ1); test: Differential scanning fluorimetry thermal shift assay; assay type: binding; details: 2 h; read-out: ΔTm DDC (Tm = 35.5°C)
Protocol: (§1) Each purified protein (2–4 µM) was incubated with or without β-lactams or BLIs at a molar ratio of 1:50 at room temperature for 2 h. Following incubation, SYPRO Orange dye (10× concentration; Fisher Scientific) was added. The samples were then brought to a final volume of 30 µL with PBS buffer and subjected to thermal cycling in a qPCR machine (Bio-Rad), with the temperature increasing from 25°C to 95°C at a rate of 1°C/min. Fluorescence changes were monitored with an excitation wavelength of 492 nm. The experiments were conducted at least in duplicate, and the melting temperature (Tm) was determined for each sample. The Tm values were then compared to those of the protein in the absence of β-lactams or BLIs to ascertain the change in melting temperature (ΔTm).

PBP B = PBP B (Mycobacterium abscessus, UniProt B1MP31); test: as above; assay type: binding; details: 2 h; read-out: ΔTm PBPB (Tm = 31.6°C)
Protocol: as §1

LDT4 [1] = target: T1, LDT4 (Mycobacterium abscessus, UniProt B1MKW1); test: Steady-state kinetics with nitrocefin (Ki,app); assay type: biochemical; details: in parentheses in Table 3
Protocol: (§2) Steady-state kinetic studies were conducted using purified LDTs and PBPs (LDT1-5, PBP B, PBP-lipo, and DDC) as previously described ([20]). The assays were performed using a BioTek Synergy2 multimode reader in conjunction with Gen5 analysis software. Increasing concentrations of NCF (Δε482 = 17,400 M^⁻¹ cm^⁻¹) were used, while fixed concentrations of the LDTs and PBPs were monitored for changes in absorbance at 482 nm over a time period of 0 to 10 min. To determine reaction velocities, a 0.25 cm path length was employed. The steady-state kinetic parameters (Vmax, kcat, and Km) were obtained by fitting the data to the Henri-Michaelis-Menten equation using a nonlinear least-squares fit in Origin 8.1 software (OriginLab, Northampton, MA). The reaction rate (v) at a given substrate concentration ([S]) was calculated according to the following equations: […]
(§3) To determine the apparent inhibition constants (Ki,app) for β-lactams and BLIs, the following experimental condition was employed: NCF as a substrate at a concentration of 5 × Km, LDT/ PBP enzymes with fixed concentration, and β-lactams and BLIs with various concentrations. Changes in absorbance at 482 nm were measured over a period of 0–30 min for each concentration of β-lactams and BLIs. Data were linearized using a Dixon plot, plotting the inverse changes in absorbance (1/ΔA) against the concentrations of β-lactams and BLIs. The observed Ki,app was determined directly from the Dixon plot, and these values were corrected for substrate concentration and affinity for the LDT using the following equation:
(§4) Ki,app=observed Ki,app/1+[NCF]/Km NCF

LDT2 = LDT2 (Mycobacterium abscessus, UniProt B1MMQ4); test: Steady-state kinetics with nitrocefin (Ki,app); assay type: biochemical; details: for Ki: Ki,app LDT2, nitrocefin at 5 × Km; for Ratio of fCss,avg to Ki,app, LDT2: in parentheses in Table 3
Protocol: as §2, §3, §4

LDT1 = LDT1 (Mycobacterium abscessus, UniProt B1MDC1); test: Steady-state kinetics with nitrocefin (Ki,app); assay type: biochemical; details: for Ki: Ki,app LDT1, nitrocefin at 5 × Km; for Ratio of fCss,avg to Ki,app, LDT1: in parentheses in Table 3
Protocol: as §2, §3, §4

[2] = human, in vivo; cited from earlier work
LDT4 [3] = target: T1, LDT4; test: Mass spectrometry of covalent adduct formation; assay type: binding; details: protein:drug 1:20, 2 h; mass accuracy ±5 Da; (−) = no change
Protocol: Truncated sequences of LDT1-5, DDC, PBP B, and PBP-lipo (Δ1–41) were generated by Celtek Biosciences and cloned into the pET28(a) + vector with a tobacco etch virus (TEV) protease cleavage site before the start codon. Clones were transformed into Escherichia coli BL21 (DE3) and grown to an OD600 of 0.6–0.8. Protein expression was induced with 0.25 mM isopropyl β-d-1-thiogalactopyranoside (IPTG) and incubated for 18 h at 18°C. Cell pellets were collected and stored at −20°C overnight, then resuspended in a buffer containing 50 mM Tris (pH 8.0), 400 mM sodium chloride, and 1 mM Tris (2-carboxyethyl) phosphine hydrochloride (TCEP), followed by sonication and centrifugation. The supernatant was purified using a His Prep FF 16/10 column (GE Healthcare) and eluted with 500 mM imidazole. Eluted protein was dialyzed overnight at 4°C in a buffer with 50 mM Tris (pH 8.0), 150 mM sodium chloride, and 0.5 mM TCEP in the presence of His-tagged TEV protease. To remove the His tag, the mixture was passed over the His Prep FF 16/10 column again.
The purified proteins listed above were incubated at room temperature with β-lactams or BLIs at a molar ratio of 1:20 for 2 h. The reactions were then quenched with acetonitrile and diluted to 1 mL with 0.1% formic acid in water. Samples were analyzed using a quadrupole time-of-flight (Q-TOF) Waters Synapt-G2-Si electrospray ionization mass spectrometer (ESI-MS) and a Waters Acquity H class ultra-performance liquid chromatography (UPLC) system, equipped with a BEH C18 1.7 µm column (2.1 × 50 mm). The MS was tuned with the following settings: capillary voltage set at 3 kV, sampling cone at 35 V, source offset at 35, source temperature of 100°C, desolvation temperature of 500°C, cone gas flow rate at 100 L/h, desolvation gas flow rate at 800 L/h, and nebulizer set at 6.0. The mobile phases consisted of 0.1% formic acid in water and 0.1% formic acid in 100% acetonitrile, with gradient elution from 10% to 90% of […] over 11 min. The system’s mass accuracy was ±5 Da.

LDT3 = LDT3 (Mycobacterium abscessus, UniProt B1MHQ4); test: Steady-state kinetics with nitrocefin (Ki,app); assay type: biochemical; details: in parentheses in Table 3
Protocol: as §2, §3, §4

Sequence of PBP B (B1MP31 entry or part of it): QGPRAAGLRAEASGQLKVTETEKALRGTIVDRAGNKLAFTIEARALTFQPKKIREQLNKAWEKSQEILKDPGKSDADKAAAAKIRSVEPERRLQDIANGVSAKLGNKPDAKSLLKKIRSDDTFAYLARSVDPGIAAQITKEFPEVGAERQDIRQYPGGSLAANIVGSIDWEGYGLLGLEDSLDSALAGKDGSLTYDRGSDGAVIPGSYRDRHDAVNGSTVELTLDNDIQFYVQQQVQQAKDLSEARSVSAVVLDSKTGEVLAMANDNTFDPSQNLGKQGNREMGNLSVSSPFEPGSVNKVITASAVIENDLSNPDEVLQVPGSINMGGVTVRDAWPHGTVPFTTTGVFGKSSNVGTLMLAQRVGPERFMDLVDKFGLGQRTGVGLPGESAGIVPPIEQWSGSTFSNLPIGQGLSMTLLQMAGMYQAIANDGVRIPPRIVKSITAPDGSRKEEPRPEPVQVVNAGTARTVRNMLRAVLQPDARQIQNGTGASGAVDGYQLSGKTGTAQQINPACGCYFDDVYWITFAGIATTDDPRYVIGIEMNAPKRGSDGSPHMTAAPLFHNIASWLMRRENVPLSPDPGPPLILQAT
Sequence of DDC (B1MDJ1 entry or part of it): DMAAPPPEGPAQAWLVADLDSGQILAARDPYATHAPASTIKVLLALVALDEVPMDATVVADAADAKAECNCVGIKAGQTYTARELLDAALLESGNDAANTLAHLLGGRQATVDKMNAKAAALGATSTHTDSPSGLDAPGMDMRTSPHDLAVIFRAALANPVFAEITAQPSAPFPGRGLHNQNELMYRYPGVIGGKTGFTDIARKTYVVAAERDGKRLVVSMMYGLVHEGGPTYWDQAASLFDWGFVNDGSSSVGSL
Sequence of LDT1 (B1MDC1 entry or part of it): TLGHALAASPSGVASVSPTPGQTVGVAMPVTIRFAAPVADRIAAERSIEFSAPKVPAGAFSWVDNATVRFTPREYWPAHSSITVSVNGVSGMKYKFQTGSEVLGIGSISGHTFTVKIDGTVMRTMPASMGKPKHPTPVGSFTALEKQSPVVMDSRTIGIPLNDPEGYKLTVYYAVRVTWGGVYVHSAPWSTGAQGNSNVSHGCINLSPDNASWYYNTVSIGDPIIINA
Sequence of LDT2 (B1MMQ4 entry or part of it): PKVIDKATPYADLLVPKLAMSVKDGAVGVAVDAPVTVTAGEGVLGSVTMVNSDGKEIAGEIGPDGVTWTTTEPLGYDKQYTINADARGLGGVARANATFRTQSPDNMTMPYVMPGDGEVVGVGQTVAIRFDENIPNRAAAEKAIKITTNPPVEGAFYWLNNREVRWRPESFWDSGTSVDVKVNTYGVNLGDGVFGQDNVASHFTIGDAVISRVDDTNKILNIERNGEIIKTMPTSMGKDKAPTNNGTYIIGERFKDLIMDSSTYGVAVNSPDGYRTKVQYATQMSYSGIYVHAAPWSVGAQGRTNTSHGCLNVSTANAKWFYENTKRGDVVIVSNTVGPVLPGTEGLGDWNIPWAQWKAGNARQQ
T1 sequence (B1MKW1 entry or part of it): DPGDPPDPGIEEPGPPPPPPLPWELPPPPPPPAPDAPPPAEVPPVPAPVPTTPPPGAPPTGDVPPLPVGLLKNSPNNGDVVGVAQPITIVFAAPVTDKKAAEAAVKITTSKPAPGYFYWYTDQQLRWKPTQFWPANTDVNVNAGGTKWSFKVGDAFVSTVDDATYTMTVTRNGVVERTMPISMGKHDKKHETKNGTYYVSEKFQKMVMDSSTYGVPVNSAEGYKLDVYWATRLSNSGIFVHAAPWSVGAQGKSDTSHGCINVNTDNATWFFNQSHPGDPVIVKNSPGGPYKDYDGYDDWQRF
Sequence of LDT3 (B1MHQ4 entry or part of it): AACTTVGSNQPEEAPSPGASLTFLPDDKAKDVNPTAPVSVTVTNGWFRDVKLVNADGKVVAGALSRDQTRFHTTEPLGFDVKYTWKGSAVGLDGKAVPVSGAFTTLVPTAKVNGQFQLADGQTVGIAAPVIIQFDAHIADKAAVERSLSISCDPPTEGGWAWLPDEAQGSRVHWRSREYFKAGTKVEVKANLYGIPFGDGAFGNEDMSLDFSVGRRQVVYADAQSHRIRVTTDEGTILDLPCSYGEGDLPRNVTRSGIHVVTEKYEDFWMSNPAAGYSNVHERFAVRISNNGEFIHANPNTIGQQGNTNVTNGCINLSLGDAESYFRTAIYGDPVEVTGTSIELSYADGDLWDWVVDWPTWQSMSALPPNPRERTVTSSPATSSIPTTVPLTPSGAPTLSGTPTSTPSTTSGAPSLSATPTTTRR

SMILES: CC1(C)S[C@@H]2[C@H](NC(=O)[C@H](N)c3ccc(O)cc3)C(=O)N2[C@H]1C(=O)O [Amoxicillin, amoxicillin]
- Bacterial killing (log10 reduction) in time-kill (Mab ATCC 19977): no killing effect

SMILES: NC(=O)[C@@H]1CC[C@@H]2CN1C(=O)N2OS(=O)(=O)O [Avibactam, avibactam]
- ΔTm (DDC): 4.2 °C
- ΔTm (PBP B): -0.2 °C
- Bacterial killing (log10 reduction) in time-kill (Mab ATCC 19977): no effect on bacterial growth inhibition or killing; also recorded: no effect
- Ratio of fCss,avg to Ki,app, LDT4 (LDT4 [1]): < 0.02
- Ki (LDT2): 1700 nM
- Ratio of fCss,avg to Ki,app, LDT2 (LDT2): 11
- Ki (LDT1): 26400 nM
- Ratio of fCss,avg to Ki,app, LDT1 (LDT1): 0.7

SMILES: CO/N=C(\C(=O)N[C@@H]1C(=O)N2C(C(=O)O)=C(COC(N)=O)CS[C@H]12)c1ccco1 [Cefuroxime, cefuroxime]
- Total clearance after IV dosing [2]: 9.0 to 16 L/h
- Observed MW (+ change in mw), LDT4 (32,567) (LDT4 [3]): 32,567 (−) Da
- Ki (LDT2): 1180 nM
- Ratio of fCss,avg to Ki,app, LDT2 (LDT2): 24

SMILES: CC1=C[C@@H]2CN(C(=O)N2OS(=O)(=O)O)[C@@H]1C(N)=O [Durlobactam, durlobactam]
- Observed MW (+ change in mw), LDT4 (32,567) (LDT4 [3]): 32,841 (+276) Da
- ΔTm (DDC): 0.4 °C
- ΔTm (PBP B): -0.4 °C
- Bacterial killing (log10 reduction) in time-kill (Mab ATCC 19977): ~ 2 log10 CFU/mL
- Ratio of fCss,avg to Ki,app, LDT4 (LDT4 [1]): 6
- Ki (LDT1): 418000 nM
- Ratio of fCss,avg to Ki,app, LDT1 (LDT1): 0.1

SMILES: C[C@@H](O)[C@H]1C(=O)N2C(C(=O)O)=C(SCCN=CN)C[C@H]12 [Imipenem, imipenem]
- Ratio of fCss,avg to Ki,app, LDT4 (LDT4 [1]): 3
- Ki (LDT2): 6.68 nM
- Ratio of fCss,avg to Ki,app, LDT2 (LDT2): 6667
- Ki (LDT1): 6.68 nM
- Ratio of fCss,avg to Ki,app, LDT1 (LDT1): 5714

SMILES: C[C@@H](O)[C@H]1C(=O)N2C(C(=O)O)=C(S[C@H]3CC[S@@+]([O-])C3)S[C@H]12 [Sulopenem, sulopenem]
- Observed MW (+ change in mw), LDT4 (32,567) (LDT4 [3]): 32,652 (+86) Da
- ΔTm (DDC): 10.4 °C
- ΔTm (PBP B): 1 °C
- Ratio of fCss,avg to Ki,app, LDT4 (LDT4 [1]): 1.1
- Ratio of fCss,avg to Ki,app, LDT3 (LDT3): 0.4
- Ki (LDT2): 200 nM
- Ratio of fCss,avg to Ki,app, LDT2 (LDT2): 29

SMILES: C[C@@H](O)[C@H]1C(=O)N2C(C(=O)O)=C(SC3CN(C4=NCCS4)C3)[C@H](C)[C@H]12 [Tebipenem, tebipenem]
- Observed MW (+ change in mw), LDT4 (32,567) (LDT4 [3]): 32,951 (+384) Da
- Ratio of fCss,avg to Ki,app, LDT4 (LDT4 [1]): 2.4
- Ki (LDT2): 26.1 nM
- Ratio of fCss,avg to Ki,app, LDT2 (LDT2): 170
- Ki (LDT1): 4950 nM
- Ratio of fCss,avg to Ki,app, LDT1 (LDT1): 0.9
